Tested on: Human platelet aggregation caused by ADP
Assay: Inhibition of ADP-induced platelet aggregation (Mimic-human PRP)
Format: cell-based
Settings: 20 μM ADP, human platelet concentrate diluted with PPP, absorption at 595 nm
Method in brief: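 Ki came from non-linear sigmoidal fits of inhibition, measured as the 3-min rise in absorbance at 595 nm after 20 μM ADP, relative to 0/20 μM ADP controls. Platelets (3–4×10^8/mL in PPP-diluted human PRP) were exposed to 0.01–30 μM compound for 20 min at room temperature beforehand.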

Work on `CCCc1cc2c(N3CCn4c(nnc4C(F)(F)F)C3)nc(N3CC[C@H](NC(=O)NC4CCCC4)C3)nc2s1` [Example 9-15, 1-Cyclopentyl-3-{(S)-1-[6-propyl-4-(3-trifluoromethyl-5,6-dihydro-8H-[1,2,4]triazolo[4,3-a]pyrazin-7-yl)-thieno[2,3-d]pyrimidin-2-yl]-pyrrolidin-3-yl}-urea] yielded a Ki of 42 nM.

`CCCc1cc2c(N3CCn4c(nnc4C(F)(F)F)C3)nc(N3CC[C@H](NC(=O)Nc4ccc(F)c(F)c4)C3)nc2s1` [Example 9-16, 1-(3,4-Difluoro-phenyl)-3-{(S)-1-[6-propyl-4-(3-trifluoromethyl-5,6-dihydro-8H-[1,2,4]triazolo[4,3-a]pyrazin-7-yl)-thieno[2,3-d]pyrimidin-2-yl]-pyrrolidin-3-yl}-urea] showed a Ki of 880 nM.

For `CCCc1cc2c(N3CCn4c(nnc4C(F)(F)F)C3)nc(N3CC[C@H](NC(=O)NS(=O)(=O)c4ccc(Cl)s4)C3)nc2s1` [Example 9-17], the Ki was 19 nM.

`CCCc1cc2c(N3CCn4c(nnc4C(F)(F)F)C3)nc(N3CC[C@H](NC(=O)OC)C3)nc2s1` [Example 9-18, {(S)-1-[6-Propyl-4-(3-trifluoromethyl-5,6-dihydro-8H-[1,2,4]triazolo[4,3-a]pyrazin-7-yl)-thieno[2,3-d]pyrimidin-2-yl]-pyrrolidin-3-yl}-carbamic acid methyl ester] showed a Ki of 10 nM.

Work on `CCCc1cc2c(N3CCn4c(nnc4C(F)(F)F)C3)nc(OCCNC(=O)OC)nc2s1` [Example 9-19, {2-[6-Propyl-4-(3-trifluoromethyl-5,6-dihydro-8H-[1,2,4]triazolo[4,3-a]pyrazin-7-yl)-thieno[2,3-d]pyrimidin-2-yloxy]-ethyl}-carbamic acid methyl ester] yielded a Ki of 3 nM.

`CCCc1cc2c(N3CCn4c(nnc4C(F)(F)F)C3)nc(N3CC[C@@H](NC(=O)OC)C3)nc2s1` [Example 9-20, {(R)-1-[6-Propyl-4-(3-trifluoromethyl-5,6-dihydro-8H-[1,2,4]triazolo[4,3-a]pyrazin-7-yl)-thieno[2,3-d]pyrimidin-2-yl]-pyrrolidin-3-yl}-carbamic acid methyl ester] showed a Ki of 6 nM.

With `CCCc1cc2c(N3CCn4c(nnc4C(F)(F)F)C3)nc(N3CC[C@H](NC=O)C3)nc2s1` [Example 9-21, N-{(S)-1-[6-Propyl-4-(3-trifluoromethyl-5,6-dihydro-8H-[1,2,4]triazolo[4,3-a]pyrazin-7-yl)-thieno[2,3-d]pyrimidin-2-yl]-pyrrolidin-3-yl}-formamide] the Ki was 6 nM.

Work on `CCCc1cc2c(N3CCn4c(nnc4C(F)(F)F)C3)nc(N3CC[C@@H](NC=O)C3)nc2s1` [Example 9-22, N-{(R)-1-[6-Propyl-4-(3-trifluoromethyl-5,6-dihydro-8H-[1,2,4]triazolo[4,3-a]pyrazin-7-yl)-thieno[2,3-d]pyrimidin-2-yl]-pyrrolidin-3-yl}-formamide] yielded a Ki of 15 nM.

In the case of `CCCc1cc2c(N3CCn4c(nnc4C(F)(F)F)C3)nc(OCCNC=O)nc2s1` [Example 9-23, N-{2-[6-Propyl-4-(3-trifluoromethyl-5,6-dihydro-8H-[1,2,4]triazolo[4,3-a]pyrazin-7-yl)-thieno[2,3-d]pyrimidin-2-yloxy]-ethyl}-formamide], the Ki is reported as 3 nM.

Work on `CCCc1cc2c(N3CCn4c(nnc4C(F)(F)F)C3)nc(N3CC[C@H](N(C)C(C)=O)C3)nc2s1` [Example 9-24, N-Methyl-N-{(S)-1-[6-propyl-4-(3-trifluoromethyl-5,6-dihydro-8H-[1,2,4]triazolo[4,3-a]pyrazin-7-yl)-thieno[2,3-d]pyrimidin-2-yl]-pyrrolidin-3-yl}-acetamide] yielded a Ki of 310 nM.

Molecule `CCCc1cc2c(N3CCn4c(nnc4C(F)(F)F)C3)nc(OCCNC(=O)NC)nc2s1` [Example 9-25, 1-Methyl-3-{2-[6-propyl-4-(3-trifluoromethyl-5,6-dihydro-8H-[1,2,4]triazolo[4,3-a]pyrazin-7-yl)-thieno[2,3-d]pyrimidin-2-yloxy]-ethyl}-urea] has a Ki of 5.7 nM.

`CCCc1cc2c(N3CCn4c(nnc4C(F)(F)F)C3)nc(OCCNC(=O)N3CCCC3)nc2s1` [Example 9-26, Pyrrolidine-1-carboxylic Acid {2-[6-propyl-4-(3-trifluoromethyl-5,6-dihydro-8H-[1,2,4]triazolo[4,3-a]pyrazin-7-yl)-thieno[2,3-d]pyrimidin-2-yloxy]-ethyl}-amide] gave a Ki of 16 nM.

`CCCc1cc2c(N3CCn4c(nnc4C(F)(F)F)C3)nc(OCCNC(N)=O)nc2s1` [Example 9-27, {2-[6-Propyl-4-(3-trifluoromethyl-5,6-dihydro-8H-[1,2,4]triazolo[4,3-a]pyrazin-7-yl)-thieno[2,3-d]pyrimidin-2-yloxy]-ethyl}-urea] gave a Ki of 6.5 nM.

`CCCc1cc2c(N3CCn4c(nnc4C(F)(F)F)C3)nc(N3CC(O)C(NC=O)C3)nc2s1` (centres unmarked) [Example 9-28, N-{4-Hydroxy-1-[6-propyl-4-(3-trifluoromethyl-5,6-dihydro-8H-[1,2,4]triazolo[4,3-a]pyrazin-7-yl)-thieno[2,3-d]pyrimidin-2-yl]-pyrrolidin-3-yl}-formamide] was tested, and the Ki was 0.16 nM.

`CCCc1cc2c(N3CCn4c(nnc4C(F)(F)F)C3)nc(N3CC(Cl)C(NC(C)=O)C3)nc2s1` (centres unmarked) [Example 9-29, N-{4-Chloro-1-[6-propyl-4-(3-trifluoromethyl-5,6-dihydro-8H-[1,2,4]triazolo[4,3-a]pyrazin-7-yl)-thieno[2,3-d]pyrimidin-2-yl]-pyrrolidin-3-yl}-acetamide] was tested, and the Ki was 2.2 nM.

`CCCc1cc2c(N3CCn4c(nnc4C(F)(F)F)C3)nc(N3CC4N=C(C)OC4C3)nc2s1` (centres unmarked) [Example 9-30, 7-[2-(2-Methyl-3a,4,6,6a-tetrahydro-pyrrolo[3,4-d]oxazol-5-yl)-6-propyl-thieno[2,3-d]pyrimidin-4-yl]-3-trifluoromethyl-5,6,7,8-tetrahydro-[1,2,4]triazolo[4,3-a]pyrazine] gave a Ki of 0.3 nM.

In the case of `CCCc1cc2c(N3CCn4c(nnc4C(F)(F)F)C3)nc(NCCNC=O)nc2s1` [Example 9-31, N-{2-[6-Propyl-4-(3-trifluoromethyl-5,6-dihydro-8H-[1,2,4]triazolo[4,3-a]pyrazin-7-yl)-thieno[2,3-d]pyrimidin-2-ylamino]-ethyl}-formamide], the Ki is reported as 87 nM.

`CCCc1cc2c(N3CCn4c(nnc4C(F)(F)F)C3)nc(NCCNC(=O)OC)nc2s1` [Example 9-32, {2-[6-Propyl-4-(3-trifluoromethyl-5,6-dihydro-8H-[1,2,4]triazolo[4,3-a]pyrazin-7-yl)-thieno[2,3-d]pyrimidin-2-ylamino]-ethyl}-carbamic acid methyl ester] gave a Ki of 29 nM.

For `CCCc1cc2c(N3CCn4c(nnc4C(F)(F)F)C3)nc(N3CCNC3=O)nc2s1` [Example 9-33, 1-[6-Propyl-4-(3-trifluoromethyl-5,6-dihydro-8H-[1,2,4]triazolo[4,3-a]pyrazin-7-yl)-thieno[2,3-d]pyrimidin-2-yl]-imidazolidin-2-one], the Ki was 41 nM.

For `CCCc1cc2c(N3CCn4c(nnc4C(F)(F)F)C3)nc(N3CC4N=COC4C3)nc2s1` (centres unmarked) [Example 9-34, 7-[6-Propyl-2-(3a,4,6,6a-tetrahydro-pyrrolo[3,4-d]oxazol-5-yl)-thieno[2,3-d]pyrimidin-4-yl]-3-trifluoromethyl-5,6,7,8-tetrahydro-[1,2,4]triazolo[4,3-a]pyrazine], the Ki was 15 nM.

`CCCc1cc2c(N3CCn4c(nnc4C(F)(F)F)C3)nc(OC)nc2s1` [Example 9-35, 7-(2-Methoxy-6-propyl-thieno[2,3-d]pyrimidin-4-yl)-3-trifluoromethyl-5,6,7,8-tetrahydro-[1,2,4]triazolo[4,3-a]pyrazine] showed a Ki of 220 nM.

In the case of `CCCc1cc2c(N3CCn4c(nnc4C(F)(F)F)C3)nc(OCC)nc2s1` [Example 9-36, 7-(2-Ethoxy-6-propyl-thieno[2,3-d]pyrimidin-4-yl)-3-trifluoromethyl-5,6,7,8-tetrahydro-[1,2,4]triazolo[4,3-a]pyrazine], the Ki is reported as 170 nM.

With `CCCc1cc2c(N3CCn4c(nnc4C(F)(F)F)C3)nc(N=[N+]=[N-])nc2s1` [Example 9-37, 7-(2-Azido-6-propyl-thieno[2,3-d]pyrimidin-4-yl)-3-trifluoromethyl-5,6,7,8-tetrahydro-[1,2,4]triazolo[4,3-a]pyrazine] the Ki was 200 nM.

Work on `CCCc1cc2c(N3CCn4c(nnc4C(F)(F)F)C3)nc(N)nc2s1` [Example 9-38, 6-Propyl-4-(3-trifluoromethyl-5,6-dihydro-8H-[1,2,4]triazolo[4,3-a]pyrazin-7-yl)-thieno[2,3-d]pyrimidin-2-ylamine] yielded a Ki of 49 nM.

Molecule `CCCc1cc2c(N3CCn4c(nnc4C(F)(F)F)C3)nc(N(C)CCNC(C)=O)nc2s1` [Example 9-40, N-(2-{Methyl-[6-propyl-4-(3-trifluoromethyl-5,6-dihydro-8H-[1,2,4]triazolo[4,3-a]pyrazin-7-yl)-thieno[2,3-d]pyrimidin-2-yl]-amino}-ethyl)-acetamide] has a Ki of 22 nM.

Molecule `CCCc1cc2c(N3CCn4c(nnc4C(F)(F)F)C3)nc(N(C)CCNC=O)nc2s1` [Example 9-41, N-(2-{Methyl-[6-propyl-4-(3-trifluoromethyl-5,6-dihydro-8H-[1,2,4]triazolo[4,3-a]pyrazin-7-yl)-thieno[2,3-d]pyrimidin-2-yl]-amino}-ethyl)-formamide] has a Ki of 37 nM.

`CCCc1cc2c(N3CCn4c(nnc4C(F)(F)F)C3)nc(N(C)CCNC(=O)OC)nc2s1` [Example 9-42, (2-{Methyl-[6-propyl-4-(3-trifluoromethyl-5,6-dihydro-8H-[1,2,4]triazolo[4,3-a]pyrazin-7-yl)-thieno[2,3-d]pyrimidin-2-yl]-amino}-ethyl)-carbamic acid methyl ester] showed a Ki of 27 nM.

In the case of `CCCc1cc2c(N3CCn4c(nnc4C(F)(F)F)C3)nc(-n3cncn3)nc2s1` [Example 9-43, 7-(6-Propyl-2-[1,2,4]triazol-1-yl-thieno[2,3-d]pyrimidin-4-yl)-3-trifluoromethyl-5,6,7,8-tetrahydro-[1,2,4]triazolo[4,3-a]pyrazine], the Ki is reported as 330 nM.

For `CCCc1cc2c(N3CCn4c(nnc4C(F)(F)F)C3)nc(OCCn3cncn3)nc2s1` [Example 9-44, 7-[6-Propyl-2-(2-[1,2,4]triazol-1-yl-ethoxy)-thieno[2,3-d]pyrimidin-4-yl]-3-trifluoromethyl-5,6,7,8-tetrahydro-[1,2,4]triazolo[4,3-a]pyrazine], the Ki was 9.8 nM.

— patent publication US20110166121A1 (LG LIFE SCIENCES LTD., priority 2008, published 2011)
